Converted amounts (≈) assume the structure as drawn. The source made the active and inactive calls. No cut-off for these calls is given here.
Legend:
[1] = system: Mycobacterium tuberculosis; test: Antitubercular activity against Mycobacterium tuberculosis T3 with fgd mutant deficient in F420 reduction assessed as inhibition of all visible growth grown under 7H9/ glucose liquid culture incubated for 7 to 14 days; assay type: functional; conditions: time 7-14 day
[2] = system: Mycobacterium tuberculosis; test: Antitubercular activity against Mycobacterium tuberculosis 5A1 with fbiC mutant deficient in cofactor F420 biosynthesis assessed as inhibition of all visible growth grown under 7H9/ glucose liquid culture incubated for 7 to 14 days; assay type: functional; conditions: time 7-14 day
[3] = system: Mycobacterium tuberculosis; test: Antitubercular activity against Mycobacterium tuberculosis T2 expressing nitroreductase rv3547 A76E mutant assessed as inhibition of all visible growth grown under 7H9/ glucose liquid culture incubated for 7 to 14 days; assay type: functional; conditions: time 7-14 day
[4] = Ratio of MIC for antitubercular activity against Mycobacterium tuberculosis resistant mutants generated by plating on 7H11/0ADC agar plates in presence of 3.75 to 15 uM 2-((3,5-Dinitrobenzyl)thio)quinazolin-4(3H)-one to MIC for antitubercular activity against wild type Mycobacterium tuberculosis H37Rv ATCC 27294; assay type: functional
[5] = system: Mycobacterium tuberculosis; test: Antitubercular activity against Mycobacterium tuberculosis resistant mutants generated by plating on 7H11/0ADC agar plates in presence of 3.75 to 15 uM 2-((3,5-Dinitrobenzyl)thio)quinazolin-4(3H)-one followed by sensitivity testing; assay type: functional, organism-based

Row | SMILES | MIC>99 [1] | MIC>99 [2] | MIC>99 [3] | Ratio [4] | Activity [5]
1 | O=c1[nH]c(SCc2cc([N+](=O)[O-])cc([N+](=O)[O-])c2)nc2cccnc12 | 37 µM (≈ 13.3 µg/mL) | 37 µM (≈ 13.3 µg/mL) | 50 µM (≈ 18 µg/mL) | – | –
2 | O=c1[nH]c(SCc2cc([N+](=O)[O-])cc([N+](=O)[O-])c2)nc2ccc(N3CCOCC3)cc12 | >=50 uM | >=50 uM | 19 µM (≈ 8.43 µg/mL) | – | –
3 | O=c1[nH]c(SCc2cc([N+](=O)[O-])cc([N+](=O)[O-])c2)nc2ccccc12 | 37 µM (≈ 13.3 µg/mL) | >50 µM | 37 µM (≈ 13.3 µg/mL) | > 40 | –
4 | O=[N+]([O-])c1cn2c(n1)OC[C@@H](OCc1ccc(OC(F)(F)F)cc1)C2 | – | – | – | – | inactive
5 | Cc1ccc2nc(SCc3cc([N+](=O)[O-])cc([N+](=O)[O-])c3)[nH]c(=O)c2c1 | >50 µM | >50 µM | >50 µM | – | –
6 | CN1CCN(c2ccc3nc(SCc4cc([N+](=O)[O-])cc([N+](=O)[O-])c4)[nH]c(=O)c3c2)CC1 | 25 µM (≈ 11.4 µg/mL) | 37 µM (≈ 16.9 µg/mL) | 37 µM (≈ 16.9 µg/mL) | – | –
7 | O=c1[nH]c(SCc2cc([N+](=O)[O-])cc([N+](=O)[O-])c2)nc2ccc(F)cc12 | >=50 uM | >50 µM | >=50 uM | – | –
8 | NNC(=O)c1ccncc1 | – | – | – | – | Active
9 | C[C@]1(COc2ccc(N3CCC(Oc4ccc(OC(F)(F)F)cc4)CC3)cc2)Cn2cc([N+](=O)[O-])nc2O1 | – | – | – | – | inactive
10 | CO[C@H]1/C=C/O[C@@]2(C)Oc3c(C)c(O)c4c(O)c(c(/C=N/N5CCN(C)CC5)c(O)c4c3C2=O)NC(=O)/C(C)=C\C=C\[C@H](C)[C@H](O)[C@@H](C)[C@@H](O)[C@@H](C)[C@H](OC(C)=O)[C@@H]1C | – | – | – | – | Active
11 | O=c1[nH]c(SCc2cc([N+](=O)[O-])cc([N+](=O)[O-])c2)nc2ccc(Br)cc12 | >50 µM | >50 µM | >50 µM | – | –
